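Where inhibition never reached the appropriate level, the endpoint shown equals the highest concentration tested. Otherwise, values were interpolated linearly from a five-concentration, 48-hour dose response in 96-well plates. TGI: concentration producing complete growth inhibition.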

Among the data in PubChem BioAssay (NCI) are TGI values, retold here.

Some test systems named below: CAKI-1 renal; CCRF-CEM leukemia; HCT-15 colon; HOP-18 NSCLC; HOP-92 NSCLC; KM20L2 colon; MALME-3M melanoma; SK-OV-3 ovarian; NCI/ADR-RES ovarian; PC-3 prostate.
Holding throughout (experiment): DTP human tumour cell line panel, 48 h

In general, TGI refers to the concentration at which net growth stops. For the compound `Cc1cccc(C)c1NC(=O)C(=O)C1C(=O)N(c2ccccc2)N=C1N` (stereo unspecified), the TGI in the test with CAKI-1 renal, in the test on CCRF-CEM leukemia, with HCT-15 colon, with HOP-18 NSCLC, in the test with HOP-92 NSCLC and in the test on KM20L2 colon was above 100 µM each time. For the same compound, the TGI in the test on MALME-3M melanoma and with SK-OV-3 ovarian was above 100 µM each time.

For the compound `CC(=O)O[C@H]1CC[C@@]2(C)C(=CC[C@@H]3C2CC[C@]2(C)Nc4oncc4CC32)C1` (stereo partly specified), the TGI in the test with CAKI-1 renal is above 100 µM; in the test with CCRF-CEM leukemia, 23 µM; in the test on HCT-15 colon, above 100 µM; with KM20L2 colon it was above 100 µM; in the test with MALME-3M melanoma, 82.2 µM; with SK-OV-3 ovarian, above 100 µM.

For the compound `CCCCCCCCCCCCC(Br)C(=O)SCCNC(=O)CCNC(=O)[C@@H](O)C(C)(C)COP(=O)(O)OP(=O)(O)OCC1OC(n2cnc3c(N)ncnc32)C(O)C1OP(=O)(O)O` (stereo partly specified), the TGI in the test with CCRF-CEM leukemia, in the test on HCT-15 colon, in the test on HOP-18 NSCLC, in the test on HOP-92 NSCLC, in the test with KM20L2 colon and in the test with MALME-3M melanoma was above 56.5 µM each time. This compound also came in with a TGI in the test on SK-OV-3 ovarian above 56.5 µM.

Take `CCOC(=O)[C@H]1Nc2ccc(O)cc2C2c3ccccc3CC21` (stereo partly specified): the TGI with CAKI-1 renal, in the test on HCT-15 colon, in the test with HOP-18 NSCLC, with KM20L2 colon and in the test on MALME-3M melanoma was above 100 µM throughout.

On to `CCCCCCCCCCCCCC(=O)OCC1OC(OC)C(NC(=O)N(CCCl)N=O)C(O)C1O` (stereo unspecified), for which the TGI in the test with CAKI-1 renal is above 100 µM; in the test on CCRF-CEM leukemia, 30.2 µM; in the test on HCT-15 colon, above 100 µM; in the test on HOP-18 NSCLC, above 100 µM; in the test on KM20L2 colon it was 52.2 µM; in the test with MALME-3M melanoma it was 56.8 µM.

On to `CCOc1ccc(NC(=O)C2=C(C)NC(C)=C(C(=O)Nc3ccc(OCC)cc3)C2c2ccc([N+](=O)[O-])cc2)cc1`, for which the TGI is above 100 µM with CAKI-1 renal; 90.8 µM with CCRF-CEM leukemia; 58.6 µM with HOP-92 NSCLC; 56.3 µM in the test on KM20L2 colon; above 100 µM in the test on MALME-3M melanoma; above 100 µM in the test on SK-OV-3 ovarian.

For `O=C(CC1C(=O)Nc2ccccc2S1=O)Nc1cccc(Cl)c1` (stereo unspecified), the TGI in the test with CAKI-1 renal is 55.3 µM; in the test on CCRF-CEM leukemia, above 57.6 µM; in the test with HCT-15 colon, above 100 µM; with HOP-18 NSCLC, above 100 µM; in the test on HOP-92 NSCLC, 53.8 µM; in the test with KM20L2 colon, above 100 µM. Besides, the TGI in the test with MALME-3M melanoma is above 84.4 µM; in the test with NCI/ADR-RES ovarian, 49.8 µM; in the test on SK-OV-3 ovarian, above 100 µM.

Take `O=S1(=O)CSc2ccc3ccccc3c2-c2c1ccc1ccccc21`: the TGI in the test on CAKI-1 renal, in the test with CCRF-CEM leukemia, with HOP-18 NSCLC, in the test on HOP-92 NSCLC and in the test with MALME-3M melanoma was above 100 µM each time.

As for `C[Si](C)(C)/C(Br)=C\CCN1C(=O)CCC1O` (stereo unspecified), the TGI in the test on CCRF-CEM leukemia, in the test on HCT-15 colon, with HOP-18 NSCLC, with HOP-92 NSCLC, with KM20L2 colon and in the test with MALME-3M melanoma was above 100 µM each time. In the test with SK-OV-3 ovarian, the TGI was above 100 µM.

For `N#CC(C#N)=C1NC(=O)C(c2ccccc2)C(=O)N1` (stereo unspecified), the TGI in the test on CAKI-1 renal, in the test with CCRF-CEM leukemia, in the test with HCT-15 colon, in the test on HOP-92 NSCLC, in the test with KM20L2 colon and with MALME-3M melanoma was above 100 µM in each case. For the same compound, the TGI with SK-OV-3 ovarian was above 100 µM.

As to `CC(C)(C)NNc1c([N+](=O)[O-])cnn(-c2ccccc2)c1=O`, the TGI in the test with CAKI-1 renal was found to be 21.1 µM; with CCRF-CEM leukemia it was 3.4 µM; with HCT-15 colon it was 10.1 µM; in the test with HOP-18 NSCLC, 32 µM; with HOP-92 NSCLC, 12.3 µM; in the test with KM20L2 colon, 13.1 µM. The results for the TGI in the test on MALME-3M melanoma, in the test with PC-3 prostate and with SK-OV-3 ovarian were 11.1 µM, 3.23 µM and 16 µM, respectively.

Regarding `O=C(O)/C(Cl)=C(/Cl)C(=O)Nc1cccc(Cl)c1`, the TGI in the test with CAKI-1 renal turned out to be 16.3 µM; in the test on CCRF-CEM leukemia it was 19 µM; with HCT-15 colon it was 34.9 µM; with HOP-18 NSCLC, 43.3 µM; with HOP-92 NSCLC it was 30.8 µM; in the test on KM20L2 colon it was 47.3 µM. In addition, the TGI is 31.7 µM in the test with MALME-3M melanoma, 38.5 µM with PC-3 prostate and 25.4 µM in the test with SK-OV-3 ovarian.

Consider `COC(=O)C1Cc2c([nH]c3ccccc23)C=N1` (stereo unspecified), for which the TGI with CAKI-1 renal, in the test with CCRF-CEM leukemia, in the test with HCT-15 colon, in the test on HOP-18 NSCLC, in the test on HOP-92 NSCLC and in the test with KM20L2 colon was above 100 µM throughout. For the same compound, the TGI with MALME-3M melanoma and with SK-OV-3 ovarian was above 100 µM throughout.

`COC(=O)/C(C#N)=C1\N=NNN1CCCc1ccccc1`: the TGI in the test with CAKI-1 renal, with CCRF-CEM leukemia, in the test on HCT-15 colon, with HOP-18 NSCLC, with HOP-92 NSCLC and in the test with MALME-3M melanoma was above 100 µM throughout. Further, the TGI in the test with SK-OV-3 ovarian is above 100 µM.

Regarding `Cc1cc2c(=O)cc(-c3ccc(Cl)cc3)oc2c(C(=O)O)c1C`, the TGI in the test with CAKI-1 renal, with CCRF-CEM leukemia, in the test with HCT-15 colon, in the test with HOP-18 NSCLC, in the test on KM20L2 colon and with MALME-3M melanoma was above 100 µM each time. This compound also returned a total growth inhibition concentration (TGI) in the test with SK-OV-3 ovarian above 100 µM.

As for `COc1nc2c(nc(N)n2C2OC(CO)C(O)C(O)C2O)c(=O)n1C` (stereo unspecified), the TGI with CAKI-1 renal, in the test on CCRF-CEM leukemia, with HOP-18 NSCLC, in the test on HOP-92 NSCLC, in the test on KM20L2 colon and in the test on MALME-3M melanoma was above 100 µM each time. Besides, the concentration for total growth inhibition (TGI) in the test with SK-OV-3 ovarian was above 100 µM.

As to `NCCOc1ccccn1`, the TGI in the test with CAKI-1 renal, in the test with CCRF-CEM leukemia, in the test on HCT-15 colon, in the test on HOP-92 NSCLC, in the test with MALME-3M melanoma and with NCI/ADR-RES ovarian was above 100 µM throughout. The TGI in the test with PC-3 prostate and in the test with SK-OV-3 ovarian was above 100 µM in each case.
